Experimental data published in US20220380341A1, “INHIBITORS OF HIV-1 NEF FOR THE TREATMENT OF HIV DISEASE” (priority 2018, published 2022).
Read-outs that look alike come from different tables or passages of the source.

How the values were obtained:
TZM-bl cell line = type: cell-based; settings: human, 1 μM
How it was run: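 TZM-bl cells (HIV-1 LTR-luciferase) infected with HIV-1NL4-3 with compound at 1 μM; luciferase read 48 h later. Percent inhibition normalized to DMSO wild-type infection (0%) and Nef-defective HIV-1 infection (100% of Nef-dependent effect). Viability in uninfected TZM-bl cells by Cell Titer Blue.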

HIV-1NL4-3 = test: HIV-1 infectivity assay in TZM-bl reporter cell line (LTR-luciferase, 48 h); type: cell-based; settings: Human immunodeficiency virus 1, TZM-bl
How it was run: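 Nef-dependent infectivity in TZM-bl cells: HIV-1NL4-3 infection with 1 μM compound, luciferase read at 48 h, normalized against DMSO wild-type and Nef-defective controls. Compound cytotoxicity in uninfected cells measured by Cell Titer Blue.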

HIV-1 NefNL4-3 = HIV-1 NefNL4-3 (Human immunodeficiency virus type 1 group M subtype B, UniProt P03406, A33V/T15A/T51N/V11I); test: Surface plasmon resonance binding to recombinant full-length Nef (NL4-3); settings: for T, minutes (residence time): 2-step induced fit, T = 1/koff2; for RU30/RUNef (extent of binding): response units at 30 μM relative to Nef immobilized on the SPR chip
uninfected PBMCs = type: cell-based; settings: human
Protocol: (§1) FIG. 4. Inhibition of HIV-1 replication by compounds disclosed herein in PBMCs. Donor PBMCs were infected with HIV-1 in the presence of inhibitor concentrations ranging from 1 to 1,000 nM or the DMSO carrier solvent as a negative control (0.1% DMSO final). Replication was assessed by p24 Gag AlphaLISA (Perkin Elmer) […]. Each donor was also infected with Nef-defective HIV-1 to establish the baseline for Nef-dependent enhancement of replication in each culture. Cytotoxicity was assessed in uninfected PBMCs over the same incubation period using the CellTiter-Blue assay (Promega). Data were fit by non-linear regression analysis (GraphPad Prism v.7.04) to determine the IC50 and CC50 values shown.
(§2) Non-HLA-typed buffy coats (Source: Pittsburgh Central Blood Bank, #E3755) are received and processed within 24 hours of blood donation. PBMCs are isolated via rocking for RBC separation following 1:1 dilution with PBS, followed by Ficoll gradient centrifugation. The lymphocyte fraction is removed and washed several times for a final concentration of ˜150-300×10^6 cells per donor. Cells are activated for 3 days with 1-5 μg/mL PHA (Sigma) and 50 U/mL IL-2. Cells are plated at 750,000 cells/ml and viability is checked at day 3 using the Cell Titer Blue assay (Promega). If cells are >90% viable, then they are infected with HIV-1 NL4-3, wild-type or Δ-Nef mutant (input typically 30-500 pg/mL p24 capsid equivalents) in the presence or absence of Nef inhibitor analogs. IL-2 is included in the media at the time of infection. After 4 days, cells are lysed with 1% Triton X-100 for 1.5 h, checked for viability via Cell Titer Blue, and frozen/stored at −20° C. HIV-1 replication is assessed with a high-sensitivity HIV-1 p24 AlphaLISA assay (Perkin Elmer) in ½-volume 96-well plates, using one-half of the recommended assay volumes for all reagents (including samples). Assays are read on the BioTek Cytation5 instrument; readout is in AlphaUnits and replication in p24 pg/mL is determined using an HIV-1 p24 capsid protein standard included in the Alpha kit.

[1] = biological target: Nef from SIV (strain mac239) (Simian immunodeficiency virus, UniProt Q5QGG3); test: biochemical
HIV-1 Nef SF2 = biological target: T1, HIV-1 Nef SF2 (Human immunodeficiency virus type 1 group M subtype B, UniProt P03407); test: biochemical; type: binding; settings: two-step induced-fit model, Reichert SPR, read-out: Reichert SPR Nef SF2 (M) two-step fitting
T1 construct: made in house

HIV-1 NL4-3 = test: HIV-1 replication in normal donor PBMCs (p24 Gag AlphaLISA); type: cell-based; settings: Human immunodeficiency virus 1, NL43, PBMC, 96 h, Table 2, 4 days
Protocol: as §1
The tables also show data for HIV-1 Replication in normal donor peripheral blood mononuclear cells (PBMCs), which is assay is conducted as follows:
as §2

[2] = 1.0 μM, TZM-bl reporter cell line, Table 4, read-out: % Infectivity Inhibition
[3] = 48 h, Table 1, TZM-bl cells, 1 μM, 48 h, 100% = Nef-defective HIV-1, read-out: HIV-1 Infectivity % Inhibition Norm. to Δ-Nef @ 1 μM
[4] = KD, M, Table 4, SPR fit 2-step induced fit, KD = koff/kon × koff2/(koff2 + kon2)
[5] = Nef NL4-3 Binding, SPR 2-state fitting KD, Table 1, 2-step induced-fit model
[6] = read-out: Nef NL4-3 Binding, SPR 1:1 or 2-site fitting KD2, Table 1, 2-site fit, second component
[7] = 1 μM, TZM-bl, normalized: DMSO wild-type HIV-1 = 0%, Nef-defective HIV-1 = 100%, read-out: HIV-1 Infectivity % Inhibition norm. to Δ-Nef @ 1 μM
[8] = Reichert SPR Nef NL43 (M) two-step fitting, KD, two-step induced-fit model, Reichert SPR, Table 3

Row | Structure (SMILES) | % Cell Viability (TZM-bl cell line) | Percent Viability @ 1 μM (TZM-bl cells) (TZM-bl cell line) | inhibition at 1 µM (HIV-1NL4-3; [2]) | inhibition at 1 µM (HIV-1NL4-3; [3]) | Kd (HIV-1 NefNL4-3) | Kd (HIV-1 NefNL4-3; [4]) | Kd (HIV-1 NefNL4-3; [5]) | T, minutes (residence time) (HIV-1 NefNL4-3; Table 4) | Kd (HIV-1 NefNL4-3; [6]) | RU30/RUNef (extent of binding) (HIV-1 NefNL4-3) | Toxicity in HIV Replication PBMC (Toxic @ concentration) (uninfected PBMCs) | Kd [1] | inhibition at 1 µM (HIV-1NL4-3; [7]) | inhibition at 1 µM (HIV-1NL4-3; 48 h, Table 2, TZM-bl cells, 1 μM, 48 h, 100% = Nef-defective HIV-1, read-out: HIV-1 Infectivity % Inhibition Norm. to Δ-Nef @ 1 μM) | Kd (HIV-1 Nef SF2) | Kd (HIV-1 NefNL4-3; Nef NL4-3 Binding, SPR 2-state fitting KD, Table 2, 2-step induced-fit model) | Kd (HIV-1 NefNL4-3; [8]) | Kd (HIV-1 NefNL4-3; read-out: Nef NL4-3 Binding, SPR 1:1 or 2-site fitting KD2, Table 2, 2-site fit, second component) | IC50 (HIV-1 NL4-3) | Kd (HIV-1 NefNL4-3; Nef NL4-3 Binding, SPR 1:1 or 2-site fitting KD2, Table 1, 2-site fit, second component)
1 | CC(=O)N1CCC(c2nn(-c3nc4ccc(Cl)cc4[nH]3)c(O)c2CCc2ccc(F)cc2)CC1 [Compound I-702, 1-{4-[1-(5-chloro-1H-1,3-benzodiazol-2-yl)-4-[2-(4-fluorophenyl)ethyl]-5-hydroxy-1H-pyrazol-3-yl]piperidin-1-yl}ethan-1-one] | 96.4% | 96.4% | 100% | 148% | 6.05e-07 M | 3.59e-06 M | 7.87e-07 M | 5.05E + 00 minutes | 2.72e-06 M | 1.56E- 02 | Toxic @ 10 nM | – | – | – | – | – | – | – | – | –
2 | Oc1c(CCc2ccc(F)cc2)c(-c2ccc(C(F)(F)F)cc2)nn1-c1cc(C(F)(F)F)n[nH]1 [Compound I-601, 4-[2-(4-fluorophenyl)ethyl]-5′-(trifluoromethyl)-3-[4-(trifluoromethyl)phenyl]-2′H-[1,3′-bipyrazol]-5-ol] | 100% | 101.3% | 67.6% | – | 1.72e-06 M | 2.64e-05 M | – | 5.59E + 00 minutes | – | 4.19E- 02 | – | 22 µM | 67.6% | 67.6% | 4.55e-05 M | 8.96e-09 M | 8.96e-09 M | 2.64e-05 M | ≤ 0.01 µM | –
3 | Oc1c(CCc2ccc(F)cc2)c(C2CC2)nn1-c1nc2cccnc2[nH]1 [Compound I-308, 3-cyclopropyl-4-[2-(4-fluorophenyl)ethyl]-1-{3H-imidazo[4,5-b]pyridin-2-yl}-1H-pyrazol-5-ol] | 100% | 100.1% | 61.4% | 61.4% | 9.41e-07 M | 4.06e-06 M | 4.06e-06 M | 5.81E + 00 minutes | – | 6.06E- 03 | – | 3.85 µM | 61.4% | – | 2.91e-06 M | – | 4.06e-06 M | – | – | 2.21e-06 M
4 | CC(C)(C)OC(=O)N1CCC(CCc2c(-c3cccc(S(C)(=O)=O)c3)nn(-c3nc4ccccc4[nH]3)c2O)CC1 [Compound I-210, tert-butyl 4-{2-[1-(1H-1,3-benzodiazol-2-yl)-5-hydroxy-3-(3-methanesulfonylphenyl)-1H-pyrazol-4-yl]ethyl}piperidine-1-carboxylate] | 83.7% | 83.7% | 95.4% | 95.4% | 8.86e-07 M | 4.56e-06 M | 4.56e-06 M | 1.06E + 01 minutes | 8.12e-06 M | 5.18E- 03 | – | 0.709 µM | 95.4% | – | 4.31e-06 M | – | 4.56e-06 M | – | – | –
5 | Oc1c(CC2CCOCC2)c(-c2ccc(F)cc2)nn1-c1nc2ccccc2[nH]1 [Compound I-151, 1-(1H-1,3-benzodiazol-2-yl)-3-(4-fluorophenyl)-4-[(oxan-4-yl)methyl]-1H-pyrazol-5-ol] | 83.0% | 83.0% | 100% | 106% | 5.34e-07 M | 6.26e-06 M | 5.65e-06 M | 4.68E + 00 minutes | 4.65e-05 M | 8.50E- 03 | – | 1.46 µM | 106% | – | 3.5e-06 M | – | 5.65e-06 M | – | – | –
6 | CC(C)OC(=O)N1CCC(c2nn(-c3nc4ccccc4[nH]3)c(O)c2CCC2CCOCC2)CC1 [Compound I-722, propan-2-yl 4-[1-(1H-1,3-benzodiazol-2-yl)-5-hydroxy-4-[2-(oxan-4-yl)ethyl]-1H-pyrazol-3-yl]piperidine-1-carboxylate] | – | 86.8% | – | 53.4% | 2.24e-06 M | – | 5.49e-06 M | – | 7.2e-06 M | – | – | 4.9 µM | 53.4% | – | 1.28e-07 M | – | 5.49e-06 M | – | – | –
7 | Oc1c(CCc2ccc(F)cc2)c(C2CC2)nn1-c1nc2cc(Cl)ccc2[nH]1 [Compound I-170, 1-(5-chloro-1H-1,3-benzodiazol-2-yl)-3-cyclopropyl-4-[2-(4-fluorophenyl)ethyl]-1H-pyrazol-5-ol] | 98.8% | 98.8% | 67.1% | 67.1% | – | 1.25e-08 M | 1.25e-08 M | 8.01E + 02 minutes | 1.99e-06 M | 2.34E- 02 | – | 0.00287 µM | 67.1% | – | 4.9e-07 M | – | 1.25e-08 M | – | – | –
